Experimental findings from patent US20230181554A1, “AGENT FOR PROTECTING AND/OR REGENERATING NEUROMUSCULAR JUNCTION” (ONO PHARMACEUTICAL CO., LTD., priority 2020, published 2023) are described below.

Experiment [1] has as its system C2C12 cells in which both human mutant SOD1 (G93A) and a human TM7SF2 gene were overexpressed and mouse primary motor neurons. Description: Neuromuscular junction formation in co-culture, C2C12 overexpressing human mutant SOD1 (G93A) and human TM7SF2. Format: cell-based. The conditions noted are these: same concentration range (0.1, 0.3, 1, and 3 μmol/L), day 11.
Experiment [2] has as its system mouse primary cultured motor neurons. The experiment can be described thus: Neurite outgrowth action in mono-culture of motor neurons. The conditions noted are these: total protrusion length on day 4 after treatment, versus control (Dunnett's test). It is filed as cell-based. The method, then:
In a mono-culture system of mouse primary cultured motor neurons, the neurite outgrowth action of a sterol C14-reductase inhibitor (TM7SF2 inhibitor) and FF-MAS was evaluated. The mouse primary cultured motor neurons were prepared from an embryonic day 13 mouse fetus. In other words, a mouse on day 13 of gestation was subjected to cervical dislocation and euthanized, and the abdomen was incised to extract the fetus. The fetus was decapitated, and then the spinal cord was extracted under a stereomicroscope. The spinal cord was treated with HBSS containing 0.25% trypsin at 37° C. for 15 minutes, then the supernatant was removed, washing was performed 3 times with HBSS, 2 mL of a dispersion solution was added, and pipetting was repeated with a tapered Pasteur pipette to prepare a cell suspension. The cell suspension was centrifuged (200 g, 5 minutes), 2 mL of a motor neuron medium was added to the sediment, the suspension was resuspended, and the number of cells was measured. The mouse primary cultured motor neurons suspended in the motor neuron medium were seeded on a 96-well imaging plate coated with poly-D-lysine at 1.5×10^4 cells/100 μL/well. […] The neurite length was evaluated by immunostaining the nuclei and protrusions of nerve cells. […] As primary antibodies, Anti-Neuron-specific beta-III Tubulin Antibody (R&D Systems, Inc., MAB1195, 1/1,000 dilution) and Anti-NeuN Antibody (Merck Millipore, ABN78, 1/500 dilution) diluted with a blocking solution were added in an amount of 50 and the plate was allowed to stand at 4° C. overnight. After washing 3 times with 100 to 150 μL/well of PBS, 50 μL/well of Alexa Fluor 647 goat anti-mouse IgG (H+L) (Invitrogen, A-21236, 1/1,000 dilution) and Alexa Fluor 488 goat anti-rabbit IgG (H+L) (Invitrogen, A-11034, 1/1,000 dilution) as secondary antibodies were added, and the plate was allowed to stand at room temperature for 1 hour while being shielded from light, and then washed 3 times with 100 to 150 μL/well of PBS. The stained plate was photographed using the Opera Phenix high-throughput high-content imaging system ([…] Japan). Images of 5 fields per well were acquired using an Alexa Fluor 647 wavelength filter for photographing neurites and an Alexa Fluor 488 wavelength filter for photographing nuclei of nerve cells, nuclei of nerve cells and neurites per field were analyzed by an analysis program, and the sum of neurite lengths per field was calculated. Taking the mean of the sum of neurite lengths in the vehicle group (0.03% DMSO or 0.2% ethanol) evaluated for each plate as 100%, the sum of neurite lengths in the sterol C14-reductase inhibitor (TM7SF2 inhibitor) and FF-MAS treatment groups was calculated.

Experiment [3] concerns co-culture of mouse myoblast cell line C2C12 cells into which human mutant SOD1 (G93A) was introduced and mouse primary cultured motor neurons. The experiment can be described thus: Neuromuscular junction formation in co-culture, α-bungarotoxin-positive area. Format: cell-based. To be noted: for concentration from which the positive area of the neuromuscular junction was significantly increased: α-bungarotoxin-positive area on day 11 after treatment, versus control (Dunnett's test); for positive area of the neuromuscular junction: day 11.

Experiment [4] deals with C2C12 cells in which human mutant SOD1 (G93A) was overexpressed alone and mouse primary motor neurons. The experiment can be described thus: Neuromuscular junction formation in co-culture, C2C12 overexpressing human mutant SOD1 (G93A) alone. Format: cell-based. The conditions noted are these: day 11.
Experiment [5] relates to mouse myoblast cell line C2C12 cells into which human mutant SOD1 (G93A) was introduced. Description: FF-MAS and 14-dehydrozymosterol accumulation action in myotube-like differentiated C2C12 cells (LC/APCI-MS/MS). It is filed as cell-based. The conditions noted are these: for intracellular FF-MAS concentration: cells recovered at 3 and 24 hours after treatment, DMSO treatment group below the detection limit; for concentration of 14-dehydrozymosterol: same treatment as for FF-MAS, cells recovered at 3 and 24 hours. Here is the method: After mouse myoblast cell line C2C12 cells into which human mutant SOD1 (G93A) was introduced were myotube-like differentiated, the cells were treated with sterol C14-reductase inhibitors (TM7SF2 inhibitors) (amorolfine, ziprasidone, and ifenprodil), and the fluctuation of sterol in the cells was evaluated. In other words, in order to differentiate C2C12 cells into myotubes, C2C12 cells that had been cultured using 15% FBS-DMEM (Dulbecco's modified Eagle's medium containing 15% fetal bovine serum and 100 units/mL penicillin-100 μg/mL streptomycin) were cultured for 2 days in a culture flask after the medium was replaced with a low-serum medium (Dulbecco's modified Eagle's medium containing 0.5% FBS, 1% insulin-transferrin-selenium, and 100 units/mL penicillin-100 μg/mL streptomycin). Then, in order to remove proliferating undifferentiated cells, the medium was replaced with a low-serum medium containing 10 μmol/L arabinocytidine (AraC), and the cells were further cultured for 2 days. The myotube-like differentiated C2C12 cells were detached from the culture flask by treatment with 0.25% trypsin-1 mmol/L EDTA, and then the cells were seeded on a 3.5-cm culture dish coated with Matrigel at 2.4×10^5 cells/dish, and cultured for 3 days. After treatment with a sterol C14-reductase inhibitor (TM7SF2 inhibitor) or 0.03% DMSO, the cells were recovered at 3 and 24 hours. After removing the medium and washing with phosphate buffered saline (PBS), the cells were recovered with 200 µL of 90% methanol containing 1 μmol/L d7-cholesterol (internal standard substance), and further recovered again with 200 μL of a 90% methanol solution, so that a total of about 400 μL of a cell recovery solution was obtained. Then, 160 μL of this cell recovery solution was pretreated by a solid-phase extraction method using OASIS PRiME HLB glution Plate, and a sample eluted with methanol/IPA (1 : 1) was measured by high-performance liquid chromatography/atmospheric pressure chemical ionization-tandem mass spectrometry (LC/APCI-MS/MS), and each concentration in the recovery solution was calculated by an internal standard calibration curve method.

Experiment [6] deals with myasthenia gravis model rat. The experiment can be described thus: Rat myasthenia gravis model (mAb35 induced), grip strength. To be noted: grip strength at 96 hours after induction by mAb35; repeated oral administration once a day; versus control (Dunnett's test). Format: in vivo. The method, then: The efficacy of ifenprodil, which is a sterol C14-reductase inhibitor (TM7SF2 inhibitor), in a rat myasthenia gravis model was evaluated. The rat myasthenia gravis model is a model in which a neuromuscular junction (NMJ) is impaired and motor functions such as grip strength are declined by treating a rat with mAb35, which is an antibody against an anti-acetylcholine receptor. First, an anti-acetylcholine receptor antibody mAb35 (Bio X Cell, product number BE0123) as an inducing agent was intraperitoneally administered to a 5-week-old female LEW/CrlCrlj rat at a concentration of 0.29 mg/mL and a volume of 5 mL/kg to induce a pathological condition. Ifenprodil (MedChemExpress, product number HY-12882A) as a test substance was dissolved in water for injection (Otsuka Pharmaceutical Factory, Inc.) containing 2% DMSO so that the concentration is 0.1, 0.3, and 1 mg/mL to prepare an administration solution. Ifenprodil was repeatedly orally administered once a day at doses of […] from 9 hours after induction by administration of mAb35 to 4 days after induction as the evaluation end date. […] The grip strength was measured on the day before induction (pre-value). […] For quantitative evaluation of the grip strength, a grip strength measuring device Traction Meter (BrainScience idea Co., Ltd.) was used.

Experiment [7] relates to rat primary Schwann cells. Description: Schwann cell differentiation-promoting action (MAG expression). Format: cell-based. To be noted: day 3 after treatment, versus control (Dunnett's test). Here is the method: The Schwann cell differentiation-promoting action of FF-MAS was evaluated in a culture system of rat primary Schwann cells. In other words, neonatal rats aged 0 to 2 days after birth were decapitated, then sterilized by being immersed in ethanol for disinfection, moved to a clean bench, and then washed with a recovery medium (Dulbecco's modified Eagle medium (Sigma Aldrich, product number D5921) without phenol red containing 1 vol % Antibiotic-Antimycotic (Antibiotic-Antimycotic 100×, Thermo Fisher Scientific, Inc., product number 15240062)). Thereafter, the dorsal root ganglion was extracted under a microscope and recovered in a 15 mL tube filled with the recovery medium. The recovered tube was centrifuged at 400 g for 3 minutes at room temperature, and the supernatant was removed. […] The number of cells in the filtered cell suspension was counted and adjusted to 2.0×10^5 cells/mL, and then the cells were seeded on a 96-well plate coated with poly-D-lysine at 100 μL/well each, and statically cultured in a CO2 incubator under conditions of 5% CO2, 95% air, and 37° C. […] The Schwann cell differentiation-promoting action was evaluated on the basis of the expression level of myelin-associated glycoprotein (hereinafter referred to as MAG). […]

In the case of `CCC(C)(C)c1ccc(CC(C)CN2C[C@@H](C)O[C@@H](C)C2)cc1` (stereo partly shown) [amorolfine], the “positive area of the neuromuscular junction” value in experiment [1] is “no increasing fluctuation”; in experiment [4] (at 1 μmol/L) it was “significantly increased”; in experiment [4] (at 3 mol/L), “significantly increased”. The “concentration from which the sum of neurite lengths was significantly increased” value in experiment [2] came out at 0.3 µmol/L. In addition, the “concentration from which the positive area of the neuromuscular junction was significantly increased” value in experiment [3] stood at 0.3 µmol/L. In addition, the “intracellular FF-MAS concentration” value in experiment [5] was “increase”. Moreover, the “concentration of 14-dehydrozymosterol” value in experiment [5] was “increase”.
As for `CC(C)=CCC[C@@H](C)[C@H]1CC[C@H]2C3=C(CC[C@]12C)[C@@]1(C)CC[C@H](O)C[C@@H]1CC3` [zymosterol], the “positive area of the neuromuscular junction” value in experiment [3] (added at 0.05 to 10 μmol/L) is “no significant increase”.
Turning to `CC(C(O)c1ccc(O)cc1)N1CCC(Cc2ccccc2)CC1` (stereo not shown) [ifenprodil], in experiment [2], the “concentration from which the sum of neurite lengths was significantly increased” value stood at 1 µmol/L. In experiment [3], the “concentration from which the positive area of the neuromuscular junction was significantly increased” value came out at 1 µmol/L. Besides, in experiment [5], the “intracellular FF-MAS concentration” value is reported as “increase” and the “concentration of 14-dehydrozymosterol” value is reported as “increase”. The “dose from which the grip strength was significantly improved” value in experiment [6] was found to be 3 mg/kg.
As to `O=C1Cc2cc(CCN3CCN(c4nsc5ccccc45)CC3)c(Cl)cc2N1` [ziprasidone], the “concentration from which the sum of neurite lengths was significantly increased” value in experiment [2] was determined as 1 µmol/L. Moreover, the “concentration from which the positive area of the neuromuscular junction was significantly increased” value in experiment [3] was 3 µmol/L. Further, in experiment [5], the “intracellular FF-MAS concentration” value is recorded as “increase” and the “concentration of 14-dehydrozymosterol” value was “increase”.
For the molecule `COc1ccc(S(=O)(=O)N2CCC(N3CCC(C)CC3)CC2)cc1` [TASIN-1], in experiment [3], the “positive area of the neuromuscular junction” value is listed as “no significant increase”.
Regarding `CC(C)=CCC[C@@H](C)[C@H]1CC=C2C3=C(CC[C@@]21C)[C@@]1(C)CC[C@H](O)C(C)(C)[C@@H]1CC3` [FF-MAS, 4,4-dimethyl-5alpha-cholesta-8,14,24-trien-3beta-ol], the “concentration from which the value of MAG/number of cell nuclei was significantly increased” value in experiment [7] amounted to 3 µmol/L. Also, the “concentration from which the sum of neurite lengths was significantly increased” value in experiment [2] amounted to 1.1 µmol/L. Also, in experiment [3], the “concentration from which the positive area of the neuromuscular junction was significantly increased” value was 10 µmol/L.
Turning to `CC(C)=CCC[C@@H](C)[C@H]1CC=C2C3=C(CC[C@@]21C)[C@@]1(C)CC[C@H](O)C[C@@H]1CC3` [14-dehydrozymosterol, 5alpha-cholesta-8,14,24-trien-3beta-ol], the “concentration from which the positive area of the neuromuscular junction was significantly increased” value in experiment [3] turned out to be 10 µmol/L.
